In US20260053861A1, “CELL COMPOSITIONS AND METHODS OF USING THE SAME” (THE REGENTS OF THE UNIVERSITY OF CALIFORNIA, priority 2022, published 2026):
Counter-ions that a name gives are not always drawn. Like-named read-outs stand apart in the source and are kept apart here.

Tested on: hPSC-SCs
[1] = HTS viability of hPSC-SCs in the presence of 30 mM glucose, Prestwick library, Table S4

Molecule | z.score.t | z.score.t [1]
Oc1ccc2c3c1O[C@H]1[C@@H](O)CC[C@@]4(O)[C@@H](C2)N(CC2CCC2)CC[C@]314 [Nalbuphine hydrochloride] | 0.1298 | 
CC(=O)N1CCN(c2ccc(OCC3COC(Cn4ccnc4)(c4ccc(Cl)cc4Cl)O3)cc2)CC1 (centres unmarked) [Ketoconazole] |  | 1.669
CC1(C)S[C@@H]2[C@H](NC(=O)Cc3ccccc3)C(=O)N2[C@H]1C(=O)O [Benzylpenicillin sodium] |  | −1.3
O=C1C=CC(=O)c2c1ccc1c2ccc2ccccc21 [Chrysene-1,4-quinone] | −1.823 | 
c1ccc(CNc2ncnc3[nH]cnc23)cc1 [Aminopurine, 6-benzyl] |  | 0.3206
CC(C(=O)O)c1cccc(Oc2ccccc2)c1 (centres unmarked) [Fenoprofen calcium salt dihydrate] |  | 0.1244
CC(C)N1CCN(c2ccc(OCC3COC(Cn4cncn4)(c4ccc(Cl)cc4Cl)O3)cc2)CC1 (centres unmarked) [Terconazole] |  | −0.07901
Solanine alpha | −0.2486 | 
NC(=O)N1c2ccccc2C=Cc2ccccc21 [Carbamazepine] |  | 0.8158
O=C(O)/C=C/c1ccc(Cn2ccnc2)cc1 [Ozagrel hydrochloride] |  | −1.148
CC(=O)OCC(=O)[C@@]1(O)CC[C@H]2[C@@H]3CCC4=CC(=O)C=C[C@]4(C)[C@@]3(F)[C@@H](O)C[C@@]21C [Isoflupredone acetate] |  | −0.3156
O=C1C=C2C=C[C@@H]3C[C@@]2(O1)[C@H]1CCCCN31 [Securinine] | −0.9042 | 
CN1CCC(OC(c2ccccc2)c2ccccc2)CC1 [Diphenylpyraline hydrochloride] |  | −0.7376
CC(C)(C)NCC(O)COc1cccc2c1CCC(=O)N2 (centres unmarked) [Carteolol hydrochloride] |  | 1.266
C=C1[C@@H]2CC[C@H]3[C@]4(C)C[C@H](O[C@@H]5O[C@H](CO)[C@@H](OS(=O)(=O)O)[C@H](OS(=O)(=O)O)[C@H]5OC(=O)CC(C)C)C[C@@H](C(=O)O)[C@H]4CC[C@]3(C2)[C@@H]1O [Atractyloside potassium salt] | −0.7376 | 
COc1ccc2c(OC)c3ccoc3nc2c1OC [Skimmianine] |  | −0.7376
C=C[C@H]1CN2CC[C@H]1C[C@H]2[C@H](O)c1ccnc2ccccc12 [(−)-Cinchonidine] |  | 1.595
CC(=O)OCC(=O)[C@@]1(OC(C)=O)[C@@H](C)C[C@H]2[C@@H]3C[C@H](F)C4=CC(=O)C=C[C@]4(C)[C@@]3(F)[C@@H](O)C[C@@]21C [Diflorasone Diacetate] |  | 1.72
C=C(C)[C@@H]1CC[C@]2(CO)CC[C@]3(C)[C@H](CC[C@@H]4[C@@]5(C)CC[C@H](O)C(C)(C)[C@@H]5CC[C@]43C)[C@@H]12 [Betulin] |  | −1.025
O=C(NCCNCC(O)COc1ccc(O)cc1)N1CCOCC1 (centres unmarked) [Xamoterol hemifumarate] |  | 0.81
CO[C@@]1(NC(=O)CSCC#N)C(=O)N2C(C(=O)O)=C(CSc3nnnn3C)CS[C@@H]21 [Cefmetazole sodium salt] |  | 0.1916
Nc1ccn([C@H]2CC[C@@H](CO)O2)c(=O)n1 [Zalcitabine] |  | −0.9487
COc1ccc(CC2c3cc(OC)c(OC)cc3CC[N+]2(C)CCC(=O)OCCCCCOC(=O)CC[N+]2(C)CCc3cc(OC)c(OC)cc3C2Cc2ccc(OC)c(OC)c2)cc1OC (centres unmarked) [Atracurium besylate] |  | 0.5041
Nc1ccc(S(=O)(=O)Nc2ccc(Cl)nn2)cc1 [Sulfachloropyridazine] |  | −0.1014
c1ccc2c(c1)CCCC2C1=NCCN1 (centres unmarked) [Tetrahydrozoline hydrochloride] |  | 0.81

Molecule | z.score.t | z.score.t [1]
CC(C)(C)CC(C)(C)c1ccc(OCCOCC[N+](C)(C)Cc2ccccc2)cc1 [Benzethonium chloride] | −1.091 | 
CN/C(=N/CCSCc1nc[nH]c1C)NC#N [Cimetidine] |  | 0.4346
CCCc1ncc(C[n+]2ccccc2C)c(N)n1 [Amprolium hydrochloride] | −1.615 | 
C1CCc2nnnn2CC1 [Pentylenetetrazole] |  | 1.171
CSc1ccc2c(c1)N(CCC1CCCCN1C)c1ccccc1S2 (centres unmarked) [Thioridazine hydrochloride] |  | −1.898
CC1=C(CC(=O)O)c2cc(F)ccc2/C1=C\c1ccc([S+](C)[O-])cc1 (centres unmarked) [Sulindac] |  | −0.2425
C#C[C@]1(OC(C)=O)CC[C@H]2[C@@H]3CCC4=C[C@@H](OC(C)=O)CC[C@@H]4[C@H]3CC[C@@]21C [Ethynodiol diacetate] |  | −0.3895
Nc1ccc(O)c(C(=O)O)c1 [Mesalamine] |  | −0.5745
CCN[C@H]1CN(CCCOC)S(=O)(=O)c2sc(S(N)(=O)=O)cc21 [Brinzolamide] |  | 0.7491
C[C@@H]1C(=O)O[C@H]2C[C@@]34[C@H]5C[C@@H](C(C)(C)C)[C@]36[C@@H](OC(=O)[C@@H]6O)O[C@@]4(C(=O)O5)[C@]21O [Ginkgolide A] | 1.034 | 
CC(C)NCC(O)c1ccc(O)c(O)c1.Cl (single isomer, unassigned; (-)) [(−)-Isoproterenol hydrochloride] |  | −0.1043
CN(C)[C@@H]1C(O)=C(C(N)=O)C(=O)[C@@]2(O)C(O)=C3C(=O)c4c(O)ccc(Cl)c4[C@@H](O)[C@H]3C[C@@H]12 [Demeclocycline hydrochloride] |  | 0.4318
C[C@@H]1C[C@@H]([C@H](O)CC2CC(=O)NC(=O)C2)C(=O)[C@@H](C)C1 [Cycloheximide] | −2.003 | 
CC[C@@H](CO)NCCN[C@@H](CC)CO [Ethambutol dihydrochloride] |  | 1.13
C=C[C@H]1C[N@@]2CC[C@H]1C[C@@H]2[C@@H](O)c1ccnc2ccc(OC)cc12 [Quinidine hydrochloride monohydrate] |  | −0.6093
COc1ccn(C)c(=O)c1C#N [Ricinine] | 0.8646 | 
CN1CC[C@]23c4ccccc4N[C@H]1[C@]21CCN(C)[C@H]3Nc2ccccc21 [Calycanthine] | 0.4849 | 
COc1c2c(nc3ccccc13)OC(C(C)(O)CO)C2 (centres unmarked) [Dubinidine] | 0.6554 | 
CC(=O)c1ccc(S(=O)(=O)NC(=O)NC2CCCCC2)cc1 [Acetohexamide] |  | 0.5856
Cc1cccc(Nc2ccncc2S(=O)(=O)NC(=O)NC(C)C)c1 [Torsemide] |  | 0.2395
N[C@@H](Cc1ccc(O)c(O)c1)C(=O)O [Levodopa] |  | −1.365
Cn1c(=O)c2c(ncn2CCO)n(C)c1=O [Etofylline] |  | 0.9225
CC1=CC(=O)C2=C(C)C[C@H](O)[C@@H]3[C@H](OC(=O)[C@H]3C)[C@H]12 [Austricine hydrate] | −0.411 | 
COc1cc2nc(N3CCN(C(=O)C4CCCO4)CC3)nc(N)c2cc1OC (centres unmarked) [Terazosin hydrochloride] |  | 0.2582
CO/N=C(\C(=O)N[C@@H]1C(=O)N2C(C(=O)O)=C(COC(C)=O)CS[C@H]12)c1csc(N)n1 [Cefotaxime sodium salt] |  | 1.931

Molecule | z.score.t | z.score.t [1]
CC(C)n1c(/C=C/C(O)CC(O)CC(=O)O)c(-c2ccc(F)cc2)c2ccccc21 (centres unmarked) [Fluvastatin sodium salt] |  | −0.4538
CC[C@H]1OC(=O)[C@H](C)[C@@H](O[C@H]2C[C@@](C)(OC)[C@@H](O)[C@H](C)O2)[C@H](C)[C@@H](O[C@@H]2O[C@H](C)C[C@H](N(C)C)[C@H]2O)[C@](C)(O)C[C@@H](C)[C@@H]2N[C@@H](COCCOC)O[C@H]([C@H]2C)[C@]1(C)O [Dirithromycin] |  | 0.3231
COc1ccc2c(c1)[C@]13CCCC[C@@H]1[C@H](C2)N(C)CC3 | 1.28 | 
CN(C)CCCSC(=N)N [Dimaprit dihydrochloride] |  | 1.918
CC(C)(C)NCC(O)COc1cccc2c1CC(O)C(O)C2 (centres unmarked) [Nadolol] |  | 0.7349
CCC1(C)CC(=O)NC1=O (centres unmarked) [Ethosuximide] |  | 0.4064
CCOc1ccc2ccccc2c1C(=O)N[C@@H]1C(=O)N2[C@@H]1SC(C)(C)[C@@H]2C(=O)O [Nafcillin sodium salt monohydrate] |  | 1.323
COc1ncnc(NS(=O)(=O)c2ccc(N)cc2)c1OC [Sulfadoxine] |  | 0.8015
Nc1cc(-c2ccncc2)c[nH]c1=O [Amrinone] |  | −1.025
Fc1ccc(C(OCCN2CCN(CCCc3ccccc3)CC2)c2ccc(F)cc2)cc1 [GBR 12909 dihydrochloride] |  | −1.092
CCC1(CC)C(=O)C=CNC1=O [Pyrithyldione] | 0.7158 | 
Cc1c(N(C)CS(=O)(=O)[O-])c(=O)n(-c2ccccc2)n1C.[Na+] [Dipyrone] |  | −1.008
CNc1ncnc2c1ncn2[C@@H]1O[C@H](CO)[C@@H](O)[C@H]1O [N6-methyladenosine] |  | 1.002
CCN(CCCCOC(=O)c1ccc(OC)c(OC)c1)C(C)Cc1ccc(OC)cc1 (centres unmarked) [Mebeverine hydrochloride] |  | −0.3301
CC[C@@H](CO)NC(=O)[C@@H]1C=C2c3cccc4[nH]cc(c34)C[C@H]2N(C)C1 [Methylergometrine maleate] | 1.669 | 
CC(=O)Oc1ccccc1C(=O)Oc1ccccc1C(=O)O [Acetylsalicylsalicylic acid] |  | 0.3922
O=C(c1ccc(OCCN2CCCCC2)cc1)c1c(-c2ccc(O)cc2)sc2cc(O)ccc12 [Raloxifene hydrochloride] |  | −1.825
C[C@@H]1NC(=O)NC1=O [Methylhydantoin-5-(L)] | 1.101 | 
CC[N+](C)(C)Cc1ccccc1Br [Bretylium tosylate] |  | −0.3895
CCCC1O[C@@H]2C[C@H]3[C@@H]4CCC5=CC(=O)C=C[C@]5(C)[C@H]4[C@@H](O)C[C@]3(C)[C@]2(C(=O)CO)O1 (some centres unmarked) [Budesonide] |  | 1.74
Terbutaline hemisulfate |  | −1.238
COc1cc(NC(C)CCCN)c2ncccc2c1 (centres unmarked) [Primaquine diphosphate] |  | −1.784
CC1CC(OC(=O)C(O)c2ccccc2)CC(C)(C)N1C (centres unmarked) [Eucatropine hydrochloride] |  | 0.0568
CN(Cc1cnc2nc(N)nc(N)c2n1)c1ccc(C(=O)N[C@@H](CCC(=O)O)C(=O)O)cc1 [Methotrexate] |  | 0.8875
